According to ChEMBL document CHEMBL1138806, “A cyclopent-2-enecarbonyl group mimics proline at the P2 position of prolyl oligopeptidase inhibitors” (J Med Chem, 2004):

Key:
[1] = Partition coefficient (logP) determined in a 1-octanol-phosphate buffer system; format: physicochemical
[2] = target: T1, Prolyl endopeptidase (Sus scrofa, UniProt P23687); assay: Inhibitory activity against purified porcine prolyl oligopeptidase
[3] = target: T1, Prolyl endopeptidase; assay: Inhibitory activity against prolyl oligopeptidase of porcine brain homogenate

T1 sequence (P23687 whole entry): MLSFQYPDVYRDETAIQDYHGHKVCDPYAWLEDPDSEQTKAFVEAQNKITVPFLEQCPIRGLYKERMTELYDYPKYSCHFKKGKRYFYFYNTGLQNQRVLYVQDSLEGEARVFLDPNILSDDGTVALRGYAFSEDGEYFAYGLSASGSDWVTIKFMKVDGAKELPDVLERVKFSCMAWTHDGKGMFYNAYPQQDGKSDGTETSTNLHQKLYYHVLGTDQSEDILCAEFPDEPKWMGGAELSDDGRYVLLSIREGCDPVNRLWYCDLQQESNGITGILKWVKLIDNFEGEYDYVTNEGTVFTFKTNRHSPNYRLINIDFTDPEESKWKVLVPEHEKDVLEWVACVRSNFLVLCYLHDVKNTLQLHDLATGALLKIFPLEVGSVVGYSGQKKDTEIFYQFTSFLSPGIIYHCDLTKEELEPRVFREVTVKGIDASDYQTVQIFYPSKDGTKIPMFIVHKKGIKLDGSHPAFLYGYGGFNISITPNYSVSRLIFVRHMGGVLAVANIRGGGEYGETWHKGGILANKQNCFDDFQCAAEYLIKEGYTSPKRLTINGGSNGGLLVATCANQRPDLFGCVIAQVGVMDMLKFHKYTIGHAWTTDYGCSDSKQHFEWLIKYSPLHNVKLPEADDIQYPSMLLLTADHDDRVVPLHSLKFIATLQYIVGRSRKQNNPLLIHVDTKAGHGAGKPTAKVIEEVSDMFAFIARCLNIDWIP

SMILES | logP [1] | Ki [2] [nM] | IC50 [3] [nM]
N#C[C@@H]1CCCN1C(=O)[C@@H]1CCC=C1C(=O)CCCc1ccccc1 | 2.4 | 0.03 | 0.2
O=C(NCc1ccccc1)C1=C(C(=O)N2CCCC2)CCC1 |  |  | 230
N#C[C@@H]1CCCN1C(=O)[C@@H]1CCCN1C(=O)CCCc1ccccc1 | 1.6 |  | 
O=C([C@@H]1CCCN1C(=O)CCCc1ccccc1)N1CCCC1 | 1.8 |  | 
O=C(NCc1ccccc1)C1=CCC[C@@H]1C(=O)N1CCC[C@H]1C(=O)CO |  |  | 52
N#C[C@@H]1CCCN1C(=O)[C@H]1CCC=C1C(=O)CCCc1ccccc1 |  |  | 5
O=C(NCc1ccccc1)C1=CCC[C@H]1C(=O)N1CCC[C@H]1C(=O)CO | 0.6 | 0.15 | 0.3
O=C(CO)[C@@H]1CCCN1C(=O)[C@@H]1CCCN1C(=O)NCc1ccccc1 | 0.2 | 0.06 | 0.2
